From US20090111741A1, “METHOD FOR TREATING AND/OR […] SEEKING BEHAVIOR” (priority 2007, published 2009)
Where two headings read alike, the source gives them in different places. Square brackets hold non-standard residues; d marks the D form. Peptide text beside a SMILES is read from it.

Key:
[1] = BBMEC permeability (in-vitro model of the blood-brain barrier); settings: for Papp: pH 7.4
[2] = metabolic stability in rat plasma; assay type: in vitro ADME; settings: read-out: Rat plasma t1/2
Source text: The metabolic stability of the peptides depends on the modifications to the peptides. […] As expected, peptides without N-terminal modification were rapidly metabolized (Table 2), presumably by aminopeptidases. […] Homogenization is likely to rupture cell membranes, releasing intracellular proteases that could metabolize these peptides, so that this system may not accurately reflect the metabolism that occurs in vivo. Endopeptidases capable of metabolizing Dyn A are also present on red blood cells, and can rapidly metabolize some Dyn A-(1-11) amide analogs, e.g. arodyn.

[3] = rat, blood
[4] = rat, brain homogenate, half life (t1/2) in rat brain homogenate
kappa-opioid receptor = settings: in vivo; cited from earlier work
[5] = target: T1, kappa-opioid receptor (KOR) (Mus musculus, UniProt P33534); settings: animal models, after a single dose; cited from earlier work
T1 construct: from tissue; host or cells: living C57B1/6J mice (central and peripheral KOR)

[6] = observation of side effects in mice; settings: mouse, in vivo
Source text: The ability of zyklophin to cross the BBB allows for any type of systemic administration, such as subcutaneous administration. Accordingly, zyklophin can be administered in a manner other than, but including, intercerebroventricular administration. Moreover, the ability of zyklophin to cross the BBB allows for a myriad of formulation opportunities, where the formulation can be prepared for a suitable mode or route of administration. As a consequence of having high selectivity for KOR and BBB permeability, zyklophin is a favorable drug candidate and as a lead drug for derivatizations and analoging. […] The mice data is discussed in more detail herein and in the incorporated references.

in vitro = settings: rat, brain homogenate, half life (t1/2) in rat brain homogenate
[7] = target: kappa-opioid receptor (KOR) (Rattus norvegicus, UniProt P34975); assay: binding affinity (Ki) at KOR
KOR = KOR (Rattus norvegicus, UniProt P34975); assay: antagonist activity (adenylyl cyclase assay); assay type: cell-based
Chain of KOR (P34975 whole entry): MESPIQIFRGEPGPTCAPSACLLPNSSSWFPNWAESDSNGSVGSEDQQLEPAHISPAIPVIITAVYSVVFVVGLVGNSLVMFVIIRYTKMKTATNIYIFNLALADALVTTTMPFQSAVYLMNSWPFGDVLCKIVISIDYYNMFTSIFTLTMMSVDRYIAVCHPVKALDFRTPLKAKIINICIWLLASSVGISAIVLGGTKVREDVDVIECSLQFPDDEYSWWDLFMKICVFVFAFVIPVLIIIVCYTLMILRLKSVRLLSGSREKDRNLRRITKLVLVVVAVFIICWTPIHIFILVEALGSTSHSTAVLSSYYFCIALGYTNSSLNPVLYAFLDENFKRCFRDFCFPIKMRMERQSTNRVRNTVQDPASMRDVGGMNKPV

T1 sequence (P33534 whole entry): as the sequence (P34975 whole entry) above, with E11D, A17S, P51S, V308A counted along it
Chain of kappa-opioid receptor (KOR) (Rattus norvegicus, UniProt P34975) (P34975 whole entry): as the sequence (P34975 whole entry) above

CC[C@H](C)[C@H](NC(=O)[C@H](CCCNC(=N)N)NC(=O)[C@H](CCCNC(=N)N)NC(=O)[C@H](CC(C)C)NC(=O)[C@H](Cc1ccccc1)NC(=O)CNC(=O)CNC(=O)[C@H](Cc1ccc(O)cc1)NC(C)=O)C(=O)N[C@@H](CCCNC(=N)N)C(=O)N1CCC[C@H]1C(=O)N[C@@H](CCCCN)C(N)=O [Ac-Dyn A-(1-11)NH2]
efflux ratio [1]: 2.4
Papp [1]: 7.1 ± 2.3 ×10⁻⁶ cm/s
half-life [2]: 1.85 ± 0.283 h

CC(=O)N[C@@H](Cc1ccccc1)C(=O)N[C@@H](Cc1ccccc1)C(=O)N[C@@H](Cc1ccccc1)C(=O)N[C@@H](CCCNC(=N)N)C(=O)N[C@@H](CC(C)C)C(=O)N[C@@H](CCCNC(=N)N)C(=O)N[C@@H](CCCNC(=N)N)C(=O)N[C@H](C)C(=O)N[C@@H](CCCNC(=N)N)C(=O)N1CCC[C@H]1C(=O)N[C@@H](CCCCN)C(N)=O [Arodyn, Ac[Phe^1,2,3,Arg^4,D-Ala^8]Dyn A-(1-11) amide] (Ac-FFFRLRR[dA]RPK-NH2)
half-life [3]: < 2 min
efflux ratio [1]: 1.6
Papp [1]: 7.6 ± 3 ×10⁻⁶ cm/s
half-life [2]: 1.73 ± 0.0667 h
half-life [4]: 0.167 to 0.183 h

CC[C@H](C)[C@H](NC(=O)[C@H](CCCN=C(N)N)NC(=O)[C@H](CCCN=C(N)N)NC(=O)[C@H](CC(C)C)NC(=O)[C@H](Cc1ccccc1)NC(=O)CNC(=O)CNC(=O)[C@@H](N)Cc1ccc(O)cc1)C(=O)N[C@@H](CCCN=C(N)N)C(=O)N1CCC[C@H]1C(=O)N[C@@H](CCCCN)C(N)=O [Dyn A-(1-11)NH2, Dynorphin A-(1-11) amide]
efflux ratio [1]: 0.9
Papp [1]: 3.8 ± 1.3 ×10⁻⁶ cm/s
half-life [2]: < 0.0333 h

CC(C)[C@@H](CN1CC[C@@](C)(c2cccc(O)c2)[C@@H](C)C1)NC(=O)[C@H]1Cc2ccc(O)cc2CN1 [JDTic, (3R)-7-hydroxy-N-{(1S)-1-{[(3R,4R)-4-(3-hydroxyphenyl)-3,4-dimethyl-1-piperidinyl]methyl}-2-methylpropyl}-1,2,3,4-tetrahydro-3-isoquinolinecarbox-amide]
effect on stress-induced reinstatement of cocaine seeking (literature) (kappa-opioid receptor): suppress stress-induced reinstatement of cocaine self-administration
duration of action of KOR antagonism (literature) [5]: prolonged duration of action

Oc1ccc2c3c1O[C@H]1c4[nH]c5c(c4C[C@@]4(O)[C@@H](C2)N(CC2CC2)CC[C@]314)C[C@@]1(O)[C@H]2Cc3ccc(O)c4c3[C@@]1(CCN2CC1CC1)[C@H]5O4 [nor-binaltorphimine]
duration of action of KOR antagonism (literature) [5]: prolonged duration of action

N=C(N)NCCC[C@@H]1NC(=O)[C@H](CCCNC(=N)N)NC(=O)[C@H](NC(=O)[C@H](Cc2ccccc2)NC(=O)CNC(=O)CNC(=O)[C@H](Cc2ccc(O)cc2)NCc2ccccc2)CC(=O)NC[C@@H](C(=O)N[C@@H](CCCNC(=N)N)C(=O)N2CCC[C@H]2C(=O)N[C@@H](CCCCN)C(N)=O)NC1=O [zyklophin, [N-benzylTyr^1,cyclo(D-Asp^5,Dap^8)]Dyn A-(1-11) amide]
side effects in mice [6]: no unwanted side affects have been observed
half-life (in vitro): 1.17 h
Ki [7]: 30 ± 2 nM
Kb (KOR): 84 nM
